{"source": "paper PMC9386018", "about": "“A lymphatic-absorbed multi-targeted kinase inhibitor for myelofibrosis therapy” (Nature Communications, 2022)", "experiment_in_all_cases": "Target kinase isoforms 10-point IC50 determination (Supplementary Fig. 7)", "format_in_all_cases": "biochemical", "key": {"[1]": {"target": "T1, Target kinase isoforms (PI3K, mTOR, RAF, MEK) (Homo sapiens, UniProt O00329)", "T1 sequence (O00329 1-1044)": "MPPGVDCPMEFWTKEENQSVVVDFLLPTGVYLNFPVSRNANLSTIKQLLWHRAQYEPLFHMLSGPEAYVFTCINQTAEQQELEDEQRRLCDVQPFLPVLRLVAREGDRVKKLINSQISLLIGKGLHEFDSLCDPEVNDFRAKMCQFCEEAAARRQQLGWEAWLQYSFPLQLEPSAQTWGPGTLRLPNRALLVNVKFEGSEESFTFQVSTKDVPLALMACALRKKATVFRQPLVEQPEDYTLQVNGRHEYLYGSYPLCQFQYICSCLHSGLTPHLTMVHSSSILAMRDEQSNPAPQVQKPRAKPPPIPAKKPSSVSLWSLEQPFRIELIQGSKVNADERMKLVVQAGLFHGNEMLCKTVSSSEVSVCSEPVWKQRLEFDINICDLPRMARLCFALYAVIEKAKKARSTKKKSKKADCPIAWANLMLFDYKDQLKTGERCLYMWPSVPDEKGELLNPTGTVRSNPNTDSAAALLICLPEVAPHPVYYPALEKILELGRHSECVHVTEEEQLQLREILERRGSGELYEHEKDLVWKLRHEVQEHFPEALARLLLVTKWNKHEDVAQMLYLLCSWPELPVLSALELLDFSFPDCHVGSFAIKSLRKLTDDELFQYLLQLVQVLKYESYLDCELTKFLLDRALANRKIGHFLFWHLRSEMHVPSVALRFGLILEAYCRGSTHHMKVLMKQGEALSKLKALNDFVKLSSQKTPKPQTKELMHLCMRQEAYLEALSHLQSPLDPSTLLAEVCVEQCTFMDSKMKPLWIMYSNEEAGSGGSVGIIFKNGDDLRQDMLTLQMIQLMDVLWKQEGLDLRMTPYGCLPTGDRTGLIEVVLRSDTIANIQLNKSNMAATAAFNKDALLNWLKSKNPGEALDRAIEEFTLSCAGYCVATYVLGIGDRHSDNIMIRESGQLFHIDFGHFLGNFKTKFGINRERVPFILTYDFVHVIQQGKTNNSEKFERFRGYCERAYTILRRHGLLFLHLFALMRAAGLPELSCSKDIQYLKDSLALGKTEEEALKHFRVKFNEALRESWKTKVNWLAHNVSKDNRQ", "settings": "PI3K delta", "in_short": "(§1)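 Kinase activity across a 10-point dose series was corrected and normalized to vehicle-treated controls. IC50 values were derived by non-linear regression of percent activity. Kinome-wide percent inhibition was averaged over replicates.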"}, "[2]": {"target": "Target kinase isoforms (PI3K, mTOR, RAF, MEK) (Homo sapiens, UniProt P42336)", "sequence (P42336 whole entry, canonical isoform)": "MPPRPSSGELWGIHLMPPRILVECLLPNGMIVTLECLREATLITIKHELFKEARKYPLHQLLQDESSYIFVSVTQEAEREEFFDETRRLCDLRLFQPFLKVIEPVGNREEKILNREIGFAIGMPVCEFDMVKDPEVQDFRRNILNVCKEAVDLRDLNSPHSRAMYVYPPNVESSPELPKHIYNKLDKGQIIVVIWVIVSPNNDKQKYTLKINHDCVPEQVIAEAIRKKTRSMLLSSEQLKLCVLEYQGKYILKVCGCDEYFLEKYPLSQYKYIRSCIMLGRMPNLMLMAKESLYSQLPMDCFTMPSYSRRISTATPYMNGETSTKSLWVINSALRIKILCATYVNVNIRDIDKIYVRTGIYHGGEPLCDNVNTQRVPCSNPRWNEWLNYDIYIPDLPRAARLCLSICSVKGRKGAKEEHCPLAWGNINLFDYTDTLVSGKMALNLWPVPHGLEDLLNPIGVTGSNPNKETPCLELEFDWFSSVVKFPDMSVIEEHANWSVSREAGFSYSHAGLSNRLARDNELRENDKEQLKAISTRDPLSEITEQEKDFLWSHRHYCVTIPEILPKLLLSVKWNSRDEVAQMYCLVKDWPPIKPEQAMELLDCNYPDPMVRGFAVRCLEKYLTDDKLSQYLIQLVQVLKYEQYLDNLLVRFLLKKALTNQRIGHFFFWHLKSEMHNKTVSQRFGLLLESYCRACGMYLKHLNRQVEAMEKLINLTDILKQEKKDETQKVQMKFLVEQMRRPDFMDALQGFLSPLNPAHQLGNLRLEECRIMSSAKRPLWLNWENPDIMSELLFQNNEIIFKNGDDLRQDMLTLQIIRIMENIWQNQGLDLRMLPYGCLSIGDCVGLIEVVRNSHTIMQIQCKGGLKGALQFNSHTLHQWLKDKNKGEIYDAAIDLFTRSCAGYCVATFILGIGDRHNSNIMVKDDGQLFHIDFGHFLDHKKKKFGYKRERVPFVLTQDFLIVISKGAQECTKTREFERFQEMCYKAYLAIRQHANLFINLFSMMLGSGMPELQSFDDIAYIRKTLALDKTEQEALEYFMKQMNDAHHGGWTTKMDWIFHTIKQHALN", "settings": "PI3K alpha", "in_short": "as §1"}, "[3]": {"target": "Target kinase isoforms (PI3K, mTOR, RAF, MEK) (Homo sapiens, UniProt P42338)", "sequence (P42338 whole entry, canonical isoform)": "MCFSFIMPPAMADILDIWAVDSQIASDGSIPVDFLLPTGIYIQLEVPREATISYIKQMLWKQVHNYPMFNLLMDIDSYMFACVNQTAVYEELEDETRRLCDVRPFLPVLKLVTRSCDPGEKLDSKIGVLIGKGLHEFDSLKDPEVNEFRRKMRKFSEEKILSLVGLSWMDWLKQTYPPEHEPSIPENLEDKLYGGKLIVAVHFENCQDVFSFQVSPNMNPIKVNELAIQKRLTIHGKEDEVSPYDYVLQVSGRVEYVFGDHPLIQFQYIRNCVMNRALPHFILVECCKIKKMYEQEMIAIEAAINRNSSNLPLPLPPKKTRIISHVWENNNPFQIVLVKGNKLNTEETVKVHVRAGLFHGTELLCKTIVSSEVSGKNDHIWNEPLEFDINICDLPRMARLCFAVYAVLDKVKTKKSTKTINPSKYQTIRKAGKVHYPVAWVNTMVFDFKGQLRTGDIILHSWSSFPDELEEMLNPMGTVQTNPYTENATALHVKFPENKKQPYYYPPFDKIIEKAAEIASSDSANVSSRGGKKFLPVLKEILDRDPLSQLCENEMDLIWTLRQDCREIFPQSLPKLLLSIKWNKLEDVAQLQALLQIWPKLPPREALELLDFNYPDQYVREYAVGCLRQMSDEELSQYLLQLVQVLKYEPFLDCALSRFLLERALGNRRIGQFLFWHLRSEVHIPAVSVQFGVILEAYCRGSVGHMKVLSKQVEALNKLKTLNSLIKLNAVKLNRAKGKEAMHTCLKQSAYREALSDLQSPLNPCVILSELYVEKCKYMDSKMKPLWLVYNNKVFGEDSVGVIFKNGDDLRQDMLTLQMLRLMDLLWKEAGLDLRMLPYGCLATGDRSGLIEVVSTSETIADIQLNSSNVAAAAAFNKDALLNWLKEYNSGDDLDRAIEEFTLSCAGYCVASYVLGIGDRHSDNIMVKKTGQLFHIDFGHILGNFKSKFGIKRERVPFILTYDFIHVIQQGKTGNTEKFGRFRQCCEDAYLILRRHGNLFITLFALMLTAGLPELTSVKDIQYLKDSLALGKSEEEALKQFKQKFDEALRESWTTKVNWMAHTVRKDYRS", "settings": "PI3K beta", "in_short": "as §1"}, "[4]": {"target": "Target kinase isoforms (PI3K, mTOR, RAF, MEK) (Homo sapiens, UniProt P48736)", "sequence (P48736 whole entry, canonical isoform)": "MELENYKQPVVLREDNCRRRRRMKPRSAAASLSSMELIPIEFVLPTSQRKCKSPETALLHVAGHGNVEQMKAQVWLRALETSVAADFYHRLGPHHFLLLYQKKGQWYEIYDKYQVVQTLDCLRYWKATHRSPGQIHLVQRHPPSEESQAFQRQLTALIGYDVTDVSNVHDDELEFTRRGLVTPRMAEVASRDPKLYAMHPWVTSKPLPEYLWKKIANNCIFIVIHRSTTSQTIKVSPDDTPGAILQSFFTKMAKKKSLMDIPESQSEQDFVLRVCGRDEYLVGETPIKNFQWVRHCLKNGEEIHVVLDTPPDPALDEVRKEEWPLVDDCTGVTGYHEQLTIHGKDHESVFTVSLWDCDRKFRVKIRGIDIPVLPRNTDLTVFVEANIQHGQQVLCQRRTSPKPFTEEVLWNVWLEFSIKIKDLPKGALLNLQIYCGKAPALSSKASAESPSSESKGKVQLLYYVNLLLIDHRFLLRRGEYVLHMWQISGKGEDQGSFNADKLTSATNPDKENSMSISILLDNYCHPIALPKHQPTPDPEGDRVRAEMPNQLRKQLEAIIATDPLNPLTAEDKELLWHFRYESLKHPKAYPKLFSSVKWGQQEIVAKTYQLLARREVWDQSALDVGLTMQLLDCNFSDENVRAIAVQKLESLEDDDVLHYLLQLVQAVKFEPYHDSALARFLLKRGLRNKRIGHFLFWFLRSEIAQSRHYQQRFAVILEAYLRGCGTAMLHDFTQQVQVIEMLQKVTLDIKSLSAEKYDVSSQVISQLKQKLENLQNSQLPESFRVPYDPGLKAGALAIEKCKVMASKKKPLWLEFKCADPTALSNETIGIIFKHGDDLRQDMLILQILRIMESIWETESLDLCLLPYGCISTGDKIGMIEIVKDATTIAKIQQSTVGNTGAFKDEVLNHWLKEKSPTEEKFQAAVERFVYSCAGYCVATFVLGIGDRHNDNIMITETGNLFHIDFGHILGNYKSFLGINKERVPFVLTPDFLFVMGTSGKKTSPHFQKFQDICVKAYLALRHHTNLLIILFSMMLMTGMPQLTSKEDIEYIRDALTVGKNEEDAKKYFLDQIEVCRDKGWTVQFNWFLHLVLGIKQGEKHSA", "settings": "PI3K gamma", "in_short": "as §1"}, "[5]": {"settings": "concentration 0.0187 nM, 18.7 pM"}, "[6]": {"settings": "concentration 0.0562 nM, 56.2 pM"}, "[7]": {"settings": "concentration 4.57 nM, 0.00457 µM"}, "[8]": {"settings": "concentration 0.0188 nM, 18.8 pM"}, "[9]": {"settings": "concentration 0.0564 nM, 56.4 pM"}, "[10]": {"settings": "concentration 0.495 nM, 0.000495 µM"}, "[11]": {"settings": "concentration 41.2 nM, 0.0412 µM"}, "[12]": {"settings": "concentration 1.52 nM, 0.00152 µM"}}, "note": "Values joined by “and” are separate entries in the source; they are usually repeats but may differ in a detail not shown here. Equal values may be shown once."}
{"smiles": "O=C(NOCCOCCOCCOCCC(=O)N1CCN(c2cnc3ccc(-c4cnc(Cl)c(NS(=O)(=O)c5ccc(F)cc5)c4)cc3n2)CC1)c1ccc(F)c(F)c1Nc1ccc(I)cc1F", "note": "[LP-182, N-(2-(2-(2-(3-(4-(7-(6-chloro-5-((4-fluorophenyl)sulfonamido)pyridin-3-yl)quinoxalin-2-yl)piperazin-1-yl)-3-oxopropoxy)ethoxy)ethoxy)ethoxy)-3,4-difluoro-2-((2-fluoro-4-iodophenyl)amino)benzamide]", "values": [{"measurement": "Kinase Activity (%) PI3K delta", "setting": "[1]; [5]", "value": "95% and 92% and 102% and 111% and 107%"}, {"measurement": "Kinase Activity (%) PI3K delta", "setting": "[1]; [6]", "value": "105% and 92% and 107% and 113% and 96%"}, {"measurement": "activity at 0.000495 µM", "setting": "[1]; concentration 0.495 nM", "value": 83, "unit": "%"}, {"measurement": "activity at 0.00152 µM", "setting": "[1]; concentration 1.52 nM", "value": 71, "unit": "%"}, {"measurement": "Kinase Activity (%) PI3K delta", "setting": "[1]; [7]", "value": 44, "unit": "%"}, {"measurement": "Kinase Activity (%) PI3K delta", "setting": "[1]; concentration 1110 nM, 1.11 µM", "value": "6% and 2% and 7% and 4%"}, {"measurement": "activity at 3.33 µM", "setting": "[1]; concentration 3330 nM", "value": 5, "unit": "%"}, {"measurement": "Kinase Activity (%) PI3K delta", "setting": "[1]; concentration 3330 nM, 3.33 µM", "value": 6, "unit": "%"}, {"measurement": "Kinase Activity (%) PI3K delta", "setting": "[1]; concentration 10000 nM, 10 µM", "value": "6% and 8% and 0% and 10% and 7%"}, {"measurement": "Kinase Activity (%) PI3K alpha", "setting": "[2]; [8]", "value": "97% and 99% and 100% and 98% and 76% and 90%"}, {"measurement": "Kinase Activity (%) PI3K alpha", "setting": "[2]; [9]", "value": "93% and 98% and 99% and 108% and 106% and 80% and 82% and 89%"}, {"measurement": "Kinase Activity (%) PI3K alpha", "setting": "[2]; [10]", "value": 79, "unit": "%"}, {"measurement": "activity at 0.00457 µM", "setting": "[2]; concentration 4.57 nM", "value": 27, "unit": "%"}, {"measurement": "Kinase Activity (%) PI3K alpha", "setting": "[2]; [11]", "value": "4% and 6% and 8% and 9% and 5% and 10% and 7%"}, {"measurement": "Kinase Activity (%) PI3K alpha", "setting": "[2]; concentration 123 nM, 0.123 µM", "value": "1% and 3% and 4% and 2% and 6%"}, {"measurement": "Kinase Activity (%) PI3K alpha", "setting": "[2]; concentration 1110 nM, 1.11 µM", "value": "0% and 1%"}, {"measurement": "Kinase Activity (%) PI3K alpha", "setting": "[2]; concentration 3330 nM, 3.33 µM", "value": "1% and 0% and 2%"}, {"measurement": "Kinase Activity (%) PI3K alpha", "setting": "[2]; concentration 10000 nM, 10 µM", "value": "5% and 0% and 3% and 1%"}, {"measurement": "Kinase Activity (%) PI3K beta", "setting": "[3]; [10]", "value": "105% and 85% and 110% and 102% and 121% and 113%"}, {"measurement": "Kinase Activity (%) PI3K beta", "setting": "[3]; [12]", "value": "95% and 99% and 101% and 103% and 119% and 118%"}, {"measurement": "Kinase Activity (%) PI3K beta", "setting": "[3]; [7]", "value": "89% and 94% and 105% and 106% and 117% and 114%"}, {"measurement": "Kinase Activity (%) PI3K beta", "setting": "[3]; [11]", "value": "80% and 74% and 95% and 101% and 98% and 107%"}, {"measurement": "Kinase Activity (%) PI3K beta", "setting": "[3]; concentration 123 nM, 0.123 µM", "value": "63% and 51% and 71% and 72% and 84%"}, {"measurement": "activity at 3.33 µM", "setting": "[3]; concentration 3330 nM", "value": 16, "unit": "%"}, {"measurement": "Kinase Activity (%) PI3K beta", "setting": "[3]; concentration 3330 nM, 3.33 µM", "value": "24% and 12% and 13% and 14%"}, {"measurement": "Kinase Activity (%) PI3K beta", "setting": "[3]; concentration 10000 nM, 10 µM", "value": "13% and 5% and 3%"}, {"measurement": "activity at 0.123 µM", "setting": "[4]; concentration 123 nM", "value": 20, "unit": "%"}, {"measurement": "activity at […]", "setting": "[4]; concentration 370 nM", "value": 6, "unit": "%"}, {"measurement": "Kinase Activity (%) PI3K gamma", "setting": "[4]; concentration 1110 nM, 1.11 µM", "value": "1% and 3% and 4% and 0%"}, {"measurement": "Kinase Activity (%) PI3K gamma", "setting": "[4]; concentration 3330 nM, 3.33 µM", "value": "0% and 1%"}, {"measurement": "Kinase Activity (%) PI3K gamma", "setting": "[4]; concentration 10000 nM, 10 µM", "value": "4% and 0% and 2%"}]}
{"smiles": "O=S(=O)(Nc1cc(-c2ccc3ncc(N4CCNCC4)nc3c2)cnc1Cl)c1ccc(F)cc1", "note": "[LP-527, N-(2-chloro-5-(3-(piperazin-1-yl)quinoxalin-6-yl)pyridin-3-yl)-4-fluorobenzenesulfonamide]", "values": [{"measurement": "Kinase Activity (%) PI3K delta", "setting": "[1]; [5]", "value": "106% and 96% and 89% and 81%"}, {"measurement": "Kinase Activity (%) PI3K delta", "setting": "[1]; [6]", "value": "100% and 95% and 78% and 86% and 79% and 91%"}, {"measurement": "Kinase Activity (%) PI3K delta", "setting": "[1]; [11]", "value": "2% and 3%"}, {"measurement": "Kinase Activity (%) PI3K delta", "setting": "[1]; concentration 123 nM, 0.123 µM", "value": "1% and 3%"}, {"measurement": "Kinase Activity (%) PI3K delta", "setting": "[1]; concentration 370 nM, […]", "value": 2, "unit": "%"}, {"measurement": "activity at 1.11 µM", "setting": "[1]; concentration 1110 nM", "value": 0, "unit": "%"}, {"measurement": "Kinase Activity (%) PI3K delta", "setting": "[1]; concentration 3330 nM, 3.33 µM", "value": 2, "unit": "%"}, {"measurement": "Kinase Activity (%) PI3K delta", "setting": "[1]; concentration 10000 nM, 10 µM", "value": 9, "unit": "%"}, {"measurement": "Kinase Activity (%) PI3K alpha", "setting": "[2]; concentration 0.00626 nM, 6.26 pM", "value": "96% and 108% and 85% and 101%"}, {"measurement": "activity at 18.8 pM", "setting": "[2]; concentration 0.0188 nM", "value": 97, "unit": "%"}, {"measurement": "Kinase Activity (%) PI3K alpha", "setting": "[2]; [8]", "value": "110% and 96% and 100%"}, {"measurement": "activity at 56.4 pM", "setting": "[2]; concentration 0.0564 nM", "value": 104, "unit": "%"}, {"measurement": "Kinase Activity (%) PI3K alpha", "setting": "[2]; [9]", "value": "103% and 96% and 99%"}, {"measurement": "activity at 0.000495 µM", "setting": "[2]; concentration 0.495 nM", "value": 47, "unit": "%"}, {"measurement": "Kinase Activity (%) PI3K alpha", "setting": "[2]; [10]", "value": "55% and 56% and 58%"}, {"measurement": "activity at 0.00152 µM", "setting": "[2]; concentration 1.52 nM", "value": 29, "unit": "%"}, {"measurement": "Kinase Activity (%) PI3K alpha", "setting": "[2]; [12]", "value": "28% and 30% and 31%"}, {"measurement": "activity at 0.00457 µM", "setting": "[2]; concentration 4.57 nM", "value": 15, "unit": "%"}, {"measurement": "Kinase Activity (%) PI3K alpha", "setting": "[2]; [7]", "value": "11% and 9%"}, {"measurement": "Kinase Activity (%) PI3K alpha", "setting": "[2]; [11]", "value": "3% and 2% and 0%"}, {"measurement": "Kinase Activity (%) PI3K beta", "setting": "[3]; [5]", "value": "86% and 99% and 98%"}, {"measurement": "Kinase Activity (%) PI3K beta", "setting": "[3]; [6]", "value": "94% and 122% and 99% and 98%"}, {"measurement": "Kinase Activity (%) PI3K beta", "setting": "[3]; [10]", "value": "87% and 91% and 92% and 97% and 104% and 103% and 82% and 98%"}, {"measurement": "Kinase Activity (%) PI3K beta", "setting": "[3]; concentration 123 nM, 0.123 µM", "value": "6% and 7% and 8% and 13%"}, {"measurement": "activity at […]", "setting": "[3]; concentration 370 nM", "value": 4, "unit": "%"}, {"measurement": "Kinase Activity (%) PI3K beta", "setting": "[3]; concentration 370 nM, […]", "value": 3, "unit": "%"}, {"measurement": "activity at 1.11 µM", "setting": "[3]; concentration 1110 nM", "value": 5, "unit": "%"}, {"measurement": "Kinase Activity (%) PI3K beta", "setting": "[3]; concentration 1110 nM, 1.11 µM", "value": 3, "unit": "%"}, {"measurement": "Kinase Activity (%) PI3K beta", "setting": "[3]; concentration 3330 nM, 3.33 µM", "value": "7% and 6% and 3%"}, {"measurement": "Kinase Activity (%) PI3K beta", "setting": "[3]; concentration 10000 nM, 10 µM", "value": "7% and 0% and 3%"}, {"measurement": "activity at 6.09 pM", "setting": "[3]; concentration […]", "value": 108, "unit": "%"}, {"measurement": "activity at 18.7 pM", "setting": "[4]; concentration 0.0187 nM", "value": 118, "unit": "%"}, {"measurement": "Kinase Activity (%) PI3K gamma", "setting": "[4]; concentration 3330 nM, 3.33 µM", "value": "0% and 3%"}, {"measurement": "Kinase Activity (%) PI3K gamma", "setting": "[4]; concentration 10000 nM, 10 µM", "value": "3% and 0% and 8%"}, {"measurement": "activity at 6.09 pM", "setting": "[4]; concentration […]", "value": 110, "unit": "%"}]}
